Measured values published in patent publication US20140328861A1, “Combination of CRTH2 Antagonist and a Proton Pump Inhibitor for the Treatment of Eosinophilic Esophagitis” (Atopix Therapeutics Limited, priority 2011, published 2014).

System: patients with active eosinophilic esophagitis (esophageal eosinophil load)
Assay: 8 week randomized, double-blind, placebo-controlled study in patients with active eosinophilic esophagitis
Type: in vivo, human
Experimental: The study was a randomized, double-blind, placebo-controlled, single-center study of (5-fluoro-2-methyl-3-quinolin-2-ylmethyl-indo-1-yl)-acetic acid (OC000459) for 8 weeks in patients with active (≧20 eos/hpf and symptoms), corticosteroid-dependent, and/or -resistant eosinophilic esophagitis (EoE). The study compared patients taking 100 mg of OC000459 twice daily with patients taking a placebo twice daily. The study consisted of 26 patients with 14 patients taking OC000459 and 12 patients taking the placebo. Pre- and post-treatment disease-activity was assessed clinically, endoscopically, histologically, and via biomarkers. The primary endpoint was the reduction of the esophageal eosinophil load.
5. Free of all medications for EoE (including topical steroids) for at least 2 weeks prior to baseline and free of systemic steroids for at least 90 days before screening. A proton-pump inhibitor is allowed if required for treatment of secondary acid reflux.
After an 8-week treatment of active EoE with OC000459, the total mean eosinophil number decreased from 114.7 to 74.2 eos/hpf, whereas under placebo, no reduction was observed (from 102.8 to 99.4 eos/hpf).
A possible explanation for this is that acid reflux may be responsible for the eosinophilic inflammation in the distal esophagus which is consistent with reports that eosinophilia is reduced by PPIs in some patients with EoE (Molina-Infante et al., 2011). […] It is therefore proposed that the combination of CRTH2 antagonists with PPIs will be effective in the treatment of EoE by blocking both the allergic and acid reflux pathways. Three patients were treated with both OC000459 and esomeprazole, either 20 mg or 40 mg once a day.

Cc1c(Cc2ccc3ccccc3n2)c2cc(F)ccc2n1CC(=O)O [OC000459, (5-fluoro-2-methyl-3-quinolin-2-ylmethyl-indo-1-yl)-acetic acid]
effect on eosinophil load, proximal versus distal esophagus (8 weeks, 100 mg twice daily, compared to placebo (FIG. 1)): more pronounced in the proximal upper esophagus than in the distal esophagus
eosinophilic load in the distal esophagus (patients with EoE, 8 weeks): not
eosinophilic load in the proximal esophagus (patients with EoE, 8 weeks): reduces eosinophilic load
total mean eosinophil number, after 8-week treatment (patients with active EoE, 100 mg twice daily, 8 weeks): 74.2 eos/hpf
total mean eosinophil number, before treatment (patients with active EoE, baseline, 100 mg twice daily group): 114.7 eos/hpf
